Assay results as given in ChEMBL document CHEMBL6096670, “Design, synthesis and biological evaluation of novel β-carbolines as antitumor agents via targeting autophagy in colorectal cancer” (Eur J Med Chem, 2025).
Calls of active or inactive are those of the source. The calls are words filed in the database; no cut-off is given here.

Assays:
[1] = Toxicity in female BALB/c mouse implanted with mouse CT26 cells assessed as change in liver morphology at 1 to 2 mg/kg administrated once every 3 days for 18 days by H&E staining based analysis; format: organism-based; conditions: in vivo, 432 h, dose 1-2 mg/kg, time 18 day
HCT-116 [2] = assay: Induction of autophagy in human HCT-116 cells transfected with tandem mRFP-GFP-LC3 plasmid assessed as increase in LC3-II accumulation by Western blot analysis; format: functional, cell-based; conditions: time 3-48 hrs
HCT-116 [3] = assay: Effect on C-PARP expression level in p53 knockout human HCT-116 cells at 1 to 2 uM incubated for 24 hrs by Western blot analysis; format: functional, cell-based; conditions: dose 1-2 µM
HCT-116 [4] = assay: Inhibition of colony formation in ATG5 knockout human HCT-116 cells assessed as reduction in number of colonies at 1 to 4 uM measured after 24 hrs by crystal violet staining based analysis; format: functional, cell-based; conditions: dose 1-4 µM
HCT-116 [5] = assay: Induction of morphological changes in human HCT-116 cells assessed as appearance of rounder cells at 0.5 to 2 uM by microscopic analysis; format: functional, cell-based; conditions: dose 0.5-2 µM
HCT-116 [6] = assay: Induction of apoptosis in human HCT-116 assessed as late apoptotic cells at 1 uM incubated for 24 hrs Annexin V FITC/PI double staining based flow cytometry (reference value: 8.02 %); format: functional
[7] = Toxicity in female BALB/c mouse implanted with mouse CT26 cells assessed as change in body weight at 1 to 2 mg/kg administrated once every 3 days for 18 days; format: organism-based; conditions: in vivo, 432 h, dose 1-2 mg/kg, time 18 day
HCT-116 [8] = assay: Inhibition of cell migration in human HCT-116 cells at 1 to 2 uM incubated for 24 hrs by crystal violet staining based transwell migration assay; format: functional; conditions: dose 1-2 µM
HCT-116 [9] = assay: Induction of autophagy pathway in human HCT-116 cells at 1 uM incubated for 24 hrs by GSEA analysis; format: functional, cell-based
HCT-116 [10] = assay: Induction of autophagy in human HCT-116 cells transfected with tandem mRFP-GFP-LC3 plasmid assessed as reduction in p62 expression by Western blot analysis; format: functional, cell-based; conditions: time 3-48 hrs
HCT-116 [11] = assay: Antiproliferative activity against human HCT-116 assessed as inhibition of cell viability at 0.5 to 2 uM by CCK8 method; format: functional, cell-based; conditions: dose 0.5-2 µM, time <= 7.0 day
HCT-116 [12] = assay: Induction of apoptosis in human HCT-116 cells assessed as effect on cleaved PARP expression level at 0.5 to 2 uM incubated for 24 hrs by Western blot analysis; format: functional, cell-based; conditions: dose 0.5-2 µM
HCT-116 [13] = assay: Induction of apoptosis in human HCT-116 assessed as necrotic cells at 1 uM incubated for 24 hrs Annexin V FITC/PI double staining based flow cytometry (reference value: 0.94 %); format: functional
CT26 [14] = assay: Antitumor activity against mouse CT26 cells implanted in female BALB/c mouse assessed as reduction in tumor weight at 1 mg/kg administrated once every 3 days for 18 days relative to control; format: functional; set-up: scale not given: the % may be the effect or the level left; conditions: time 18 day
CT26 [15] = assay: Antitumor activity against mouse CT26 cells implanted in female BALB/c mouse assessed as reduction in Ki67 expression at 1 to 2 mg/kg administrated once every 3 days for 18 days by immunohistochemistry analysis; format: functional, organism-based; conditions: dose 1-2 mg/kg, time 18.0 day
HCT-116 [16] = assay: Induction of apoptosis in human HCT-116 assessed as viable cells at 2 uM pretreated with Z-VAD-FMK for 30 mins followed by compound addition and measured after 24 hrs by Annexin V-FITC/PI double staining based flow cytometry (reference value: 90.8%); format: functional; conditions: read-out: Activity
HCT-116 [17] = assay: Antiproliferative activity against ATG5 knockout human HCT-116 cells assessed as inhibition of cell viability incubated for 24 hrs by CCK8 assay; format: functional, cell-based; conditions: HCT-116, 24 h
HCT-116 [18] = assay: Antiproliferative activity against ATG7 knockout human HCT-116 cells assessed as inhibition of cell viability incubated for 24 hrs by CCK8 assay; format: functional, cell-based; conditions: HCT-116, 24 h
786-0 = assay: Antiproliferative activity against human 786-0 cells assessed as inhibition of cell growth incubated for 48 hrs by MTT assay; format: functional, cell-based; conditions: 786-0, 48 h
HCT-116 [19] = assay: Inhibition of colony formation in human HCT-116 cells assessed as reduction in number of colonies at 0.5 to 2 uM measured after 24 hrs by crystal violet staining based analysis; format: functional, cell-based; conditions: dose 0.5-2 µM
HCT-116 [20] = assay: Induction of morphological changes in human HCT-116 cells assessed as appearance of inflated cell shape at 0.5 to 2 uM by microscopic analysis; format: functional, cell-based; conditions: dose 0.5-2 µM
HCT-116 [21] = assay: Induction of autophagy in ATG7 knockout human HCT-116 cells assessed as increase in LC3-II expression at 1 to 2 uM incubated for 24 hrs by Western blot analysis; format: functional, cell-based; conditions: dose 1-2 µM
HCT-116 [22] = assay: Effect on C-PARP expression level in Bax knockout human HCT-116 cells at 1 to 2 uM incubated for 24 hrs by Western blot analysis; format: functional, cell-based; conditions: dose 1-2 µM
HCT-116 [23] = assay: Induction of apoptosis in human HCT-116 assessed as late apoptotic cells at 2 uM pretreated with Z-VAD-FMK for 30 mins followed by compound addition and measured after 24 hrs by Annexin V-FITC/PI double staining based flow cytometry (reference value: 7.43%); format: functional
HCT-116 [24] = assay: Effect on caspase 3 expression level in p53 knockout human HCT-116 cells at 1 to 2 uM incubated for 24 hrs by Western blot analysis; format: functional, cell-based; conditions: dose 1-2 µM
HCT-116 [25] = assay: Induction of autophagy in human HCT-116 cells transfected with mRFP-GFP-LC3B assessed as appearance of RFP aggregate clusters in cytoplasm at 0.5 to 2 uM incubated for 24 hrs by DAPI staining based fluorescence confocal microscopic analysis; format: functional, cell-based; conditions: dose 0.5-2 µM
HCT-116 [26] = assay: Induction of apoptosis in human HCT-116 assessed as necrotic cells at 2 uM incubated for 24 hrs Annexin V FITC/PI double staining based flow cytometry (reference value: 0.94 %); format: functional
HCT-116 [27] = assay: Effect on PARP expression level in p53 knockout human HCT-116 cells at 1 to 2 uM incubated for 24 hrs by Western blot analysis; format: functional, cell-based; conditions: dose 1-2 µM
HCT-116 [28] = assay: Induction of apoptosis in human HCT-116 cells assessed as effect on cleaved caspase-8 expression level at 0.5 to 2 uM incubated for 24 hrs by Western blot analysis; format: functional, cell-based; conditions: dose 0.5-2 µM
HCT-116 [29] = assay: Inhibition of colony formation in wildtype human HCT-116 cells assessed as reduction in number of colonies at 1 to 4 uM measured after 24 hrs by crystal violet staining based analysis; format: functional, cell-based; conditions: dose 1-4 µM
HCT-116 [30] = assay: Induction of apoptosis in human HCT-116 assessed as viable cells at 1 uM pretreated with Z-VAD-FMK for 30 mins followed by compound addition and measured after 24 hrs by Annexin V-FITC/PI double staining based flow cytometry (reference value: 90.8%); format: functional; conditions: read-out: Activity
HCT-116 [31] = assay: Upregulation of autophagy pathway related genes expression in human HCT-116 cells at 1 uM incubated for 24 hrs by GSVA enrichment analysis; format: functional, cell-based
HCT-116 [32] = assay: Induction of autophagy in human HCT-116 cells transfected with mRFP-GFP-LC3B assessed as autophagolysosome formation by measuring RFP fluorescence at 0.5 to 2 uM incubated for 24 hrs by DAPI staining based fluorescence confocal microscopic analysis; format: functional, cell-based; conditions: dose 0.5-2 µM
BGC-823 = assay: Antiproliferative activity against human BGC-823 cells assessed as inhibition of cell growth incubated for 48 hrs by MTT assay; format: functional, cell-based; conditions: BGC-823, 48 h

**Q.** For `CCN(CC)CCCNCc1cc2c3ccccc3n(CCCc3ccccc3)c2c(CNCCCN(CC)CC)n1`, which Activity [1] is on record?
**A.** The Activity was “Non-toxic”.

**Q.** What about the Activity (HCT-116 [2]) of the same molecule?
**A.** Its Activity is “Time-dependent-effect”.

**Q.** What about the Activity (HCT-116 [3]) of the same molecule?
**A.** Its Activity is “inactive”.

**Q.** And the inhibition (HCT-116 [4])?
**A.** The inhibition was “Active; Insignificant Decrease In Number Of Colonies Observed”.

**Q.** What about the Activity (HCT-116 [5]) of the same molecule?
**A.** The Activity was “Active”.

**Q.** And the Activity (HCT-116 [6])?
**A.** The Activity was 11.2%.

**Q.** What about the Activity [7] of the same molecule?
**A.** The Activity was “Non-toxic”.

**Q.** What about the inhibition (HCT-116 [8]) of the same molecule?
**A.** Its inhibition is “Active”.

**Q.** What about the Activity (HCT-116 [9]) of the same molecule?
**A.** The Activity was “Active”.

**Q.** What about the Activity (HCT-116 [10]) of the same molecule?
**A.** The Activity was “Time-dependent-effect”.

**Q.** And the Activity (HCT-116 [11])?
**A.** The Activity was “Time-dependent-effect”.

**Q.** And the Activity (HCT-116 [12])?
**A.** The Activity was “inactive”.

**Q.** And the Activity (HCT-116 [13])?
**A.** Its Activity is 2.02%.

**Q.** What about the Activity (CT26 [14]) of the same molecule?
**A.** Its Activity is 56.5%.

**Q.** What about the Activity (CT26 [15]) of the same molecule?
**A.** The Activity was “Active”.

**Q.** What about the viability at 2 µM (HCT-116 [16]) of the same molecule?
**A.** Its viability at 2 µM is 82.3%.

**Q.** What about the IC50 (HCT-116 [17]) of the same molecule?
**A.** The IC50 was 6.62 µM.

**Q.** What about the IC50 (HCT-116 [18]) of the same molecule?
**A.** Its IC50 is 6.49 µM.

**Q.** And the IC50 (786-0)?
**A.** Its IC50 is 3.86 µM.

**Q.** What about the inhibition (HCT-116 [19]) of the same molecule?
**A.** Its inhibition is “Active”.

**Q.** What about the Activity (HCT-116 [20]) of the same molecule?
**A.** The Activity was “Active”.

**Q.** What about the Activity (HCT-116 [21]) of the same molecule?
**A.** Its Activity is “inactive”.

**Q.** What about the Activity (HCT-116 [22]) of the same molecule?
**A.** Its Activity is “inactive”.

**Q.** What about the Activity (HCT-116 [23]) of the same molecule?
**A.** Its Activity is 13.7%.

**Q.** And the Activity (HCT-116 [24])?
**A.** Its Activity is “inactive”.

**Q.** And the Activity (HCT-116 [25])?
**A.** Its Activity is “Active”.

**Q.** And the Activity (HCT-116 [26])?
**A.** Its Activity is 2.86%.

**Q.** And the Activity (HCT-116 [27])?
**A.** Its Activity is “inactive”.

**Q.** And the Activity (HCT-116 [28])?
**A.** Its Activity is “inactive”.

**Q.** What about the inhibition (HCT-116 [29]) of the same molecule?
**A.** The inhibition was “Active”.

**Q.** And the viability at 1 µM (HCT-116 [30])?
**A.** The viability at 1 µM was 83.7%.

**Q.** What about the Activity (HCT-116 [31]) of the same molecule?
**A.** The Activity was “Active”.

**Q.** What about the Activity (HCT-116 [32]) of the same molecule?
**A.** Its Activity is “Active; Rfp Fluorescence Remained Unchanged”.

**Q.** What about the IC50 (BGC-823) of the same molecule?
**A.** Its IC50 is 3.81 µM.
